Reference: patent US20250017915A1, “METHOD OF TREATING CANCER ASSOCIATED WITH RAS MUTATION” (The Board of Trustees of the University of Illinois, priority 2021, published 2025)

Experiments:
Panc1 cells [1] = test: RNA sequencing and gene set enrichment analysis; assay type: cell-based, human; settings: Panc1, 1 μM, 24 hours, RNA sequencing
Experimental: After 24 hours RNA was extracted using the RNeasy Plus Mini Kit (Qiagen, Hilden, Germany) per the manufacturer's instructions. Quality control, sequencing, and data analysis were performed by Novogene.

BRD4 and EP300/CBP = test: Immunoprecipitation of BRD4 and EP300/CBP, Panc1; assay type: cell-based, human; settings: Panc1, 1 μM
Experimental: For immunoprecipitation, cell lysates were collected using IP buffer (25 mM Tris-HCl pH 7.5, 150 mM NaCl, 1 mM EDTA, 0.1% NP-40 and 5% glycerol) with a protease and phosphatase inhibitory cocktail (Cell Signaling), and cell extracts were incubated overnight with the respective antibodies followed by incubation with protein A or G agarose beads for 4 h at 4° C. After washing 5-7 times with lysis buffer, immunocomplexes were resolved using SDS-PAGE and visualized by western blot. All antibodies were compared with isotype specific IgG controls to affirm specificity. All experiments were performed in triplicate unless otherwise specified.
(§1) Using these same lysates, we also evaluated the association between BRD4 and EP300/CBP by immunoprecipitation.

Panc1 cells [2] = test: Cell growth assay (percent confluence); assay type: cell-based, human; settings: Panc1, 1 μM each drug, until DMSO-treated cells reached 100% confluence
Experimental: (§2) For cell growth assays, a fixed number of serum starved tumor cells were seeded into each well of a 24 well plate to reach 10% confluence, the subsequent percent confluence evaluated every 4 hours until the control group reached 100% confluence. For cell viability assays, 2,000-4,000 cells were seeded into each well of a 96-well plate in serum free DMEM. After 16 hours, media/drug was added and cells cultured for 72 hours. At this time, we added 20 ul of a 5 mg/ml 3-(4,5-Dimethyl-2-thiazolyl)-2,5-diphenyl-2H-tetrazolium bromide (MTT) solution to each well […]. After two hours, media was aspirated and crystals dissolved in DMSO and 570 nm absorbance determined by plate reader.

Panc1 cells [3] = test: Western blot, Panc1; assay type: cell-based, human
Experimental: Cell or tissue lysates were lysed in RIPA buffer (Cell Signaling) followed by sonication. Equal amounts of protein (15-50 μg) were mixed with loading dye, boiled for 8 min, separated on a 4-20% denaturing SDS-PAGE gel and transferred to a PVDF membrane. The membrane was blocked in 5% milk/TBS/0.1% Tween for one hour and incubated with antibodies against pRB, pMEK1, MEK1, pERK1/2, ERK1/2, (Cell Signaling, Danvers, MA), H3K27ac (Active Motif, Carlsbad, CA), KRAS (Novus Bio, Saint Charles, MO), BRD4, EP300 (abcam, Cambridge, MA), or GAPDH (Santa Cruz Biotech, Santa Cruz, CA). The membrane was washed with TBS-0.1% Tween and then incubated with HRP conjugated secondary antibody (Cell Signaling) at room temperature for one hour and rewashed. Protein bands were visualized by an enhanced chemiluminescence method (Thermo Fischer, Waltham, MA) and resolved digitally per the manufacturer's specifications.
as §1

Panc1 cells [4] = test: Cell viability, MTT assay; assay type: cell-based, human; settings: Panc1, increasing concentrations, with or without 1 μM SGC-CBP30, 48 hours
Experimental: as §2
After 48 hours, we examined changes in cell viability via MTT assay.

[5] = system: Pdx1-Cre×LSL-Kras^G12D×LSL-TP53^R172H+/+ (KPPC) mice; test: KPPC mouse model of extremely aggressive PDAC, late intervention; assay type: in vivo; settings: 5 mg/kg daily IP
Description: (§3) Nongenic B6 (Wild Type), P48-Cre×LSL-Kras^G12D (KC), Pdx1-Cre×LSL-Kras^G12D×LSL-TP53^R172H+/− (KPC), and Pdx1-Cre×LSL-Kras^G12D×LSL-TP53^R172H+/+ (KPPC) mice were generated as described previously (24). […] Mice were euthanized at 6 months of age and tissues collected for analysis. […] KPC mice were sacrificed when moribund or showing clear signs of health decline e.g. fur loss, weight loss, or lethargy, or for non-survival studies at the fixed endpoint shown in the number of days after enrollment. For studies involving KPPC mice, animals were enrolled either when developing a 0.5 cm, palpable tumor or at 4 weeks of age. […] For euthanasia, animals were deeply anesthetized with isoflurane until unresponsive to toe tap and/or agonal breathing was observed. Thoracotomy served as the primary method of euthanasia and exsanguination the secondary method. For all mouse studies, mice were age matched within 2 weeks and males and females randomized at a 50:50 ratio.
We next conducted a late intervention study using the Pdx1-Cre×LSL-Kras^G12D×LSL-TP53^R172H+/+ (KPPC) model of extremely aggressive PDAC. In our colony, KPPC mice have a median survival of 43 days (N=12) and develop extensive PDAC as early as two weeks of age. We, therefore, enrolled mice as described either when they developed a 0.5 cm tumor or at 4 weeks of age and placed them into one of two treatment groups (N=6/group).

[6] = system: Pdx1-Cre×LSL-Kras^G12D×LSL-TP53^R172H+/− (KPC) mice; test: KPC mouse model of invasive PDAC, survival and endpoint tissue analysis; assay type: in vivo; settings: XP-524 5 mg/kg daily IP and/or anti-PD-1 200 μg
Description: as §3
Using these mice, we first conducted an early intervention study in which mice were allowed to develop overt PDAC for a minimum of 15 weeks, at which point 100% of mice in our colony develop focal PDAC. At this time, mice were then randomized at a 50:50 male to female ratio into one of two treatment groups (N=7/group). […]

| Structure (SMILES) | KRAS signaling and cell cycle pathways (Panc1 cells [1]) | co-precipitation of BRD4 and EP300/CBP (BRD4 and EP300/CBP) | cell growth (Panc1 cells [2]) | histone acetylation (H3K27ac) (Panc1 cells [3]) | cell viability (Panc1 cells [4]) | median survival post-enrollment [5] | median survival post-enrollment [6] |
| --- | --- | --- | --- | --- | --- | --- | --- |
| Cc1sc2c(c1C)C(c1ccc(Cl)cc1)=N[C@@H](CC(=O)OC(C)(C)C)c1nnc(C)n1-2 [JQ-1] | modest suppression of KRAS and cell cycle pathways | modestly reduced co-precipitation of BRD4 and EP300/CBP | modest growth suppression | compensatory increase in histone acetylation | reduction in cell viability |  |  |
| COc1ccc(CCc2nc3cc(-c4c(C)noc4C)ccc3n2C[C@H](C)N2CCOCC2)cc1Cl [SGC-CBP30] |  |  | marginal effect on cell growth |  |  |  |  |
| CCS(=O)(=O)Nc1cc(-c2cn(C)c3c(=O)[nH]ccc23)cc2c1ccn2C(C)(c1ccccn1)c1ccccn1 [XP-524] |  |  |  |  |  | 50 days | 108 days |
